# Data: PMC4976923, “Potent Allosteric Dengue Virus NS5 Polymerase Inhibitors: Mechanism of Action and Resistance Profiling” (PLoS Pathogens, 2016)
# Experiments:
# [1] = system: Control DENV2-NGC EGFP-replicon cells passaged in DMSO; assay: Control DENV2-NGC EGFP-replicon cells passaged in DMSO; assay type: cell-based; details: Dengue virus, DENV2, 48 h; 2 days
# [2] = target: DENV4 RdRp domain (aa 268–900) (Dengue virus type 4, UniProt P09866); assay: Thermo-denaturation assay, recombinant RdRp domain; assay type: binding; details: +50 μM compound; DMSO control 50
# DENV4 RdRp domain (aa 268–900), sequence (P09866 2753-3387): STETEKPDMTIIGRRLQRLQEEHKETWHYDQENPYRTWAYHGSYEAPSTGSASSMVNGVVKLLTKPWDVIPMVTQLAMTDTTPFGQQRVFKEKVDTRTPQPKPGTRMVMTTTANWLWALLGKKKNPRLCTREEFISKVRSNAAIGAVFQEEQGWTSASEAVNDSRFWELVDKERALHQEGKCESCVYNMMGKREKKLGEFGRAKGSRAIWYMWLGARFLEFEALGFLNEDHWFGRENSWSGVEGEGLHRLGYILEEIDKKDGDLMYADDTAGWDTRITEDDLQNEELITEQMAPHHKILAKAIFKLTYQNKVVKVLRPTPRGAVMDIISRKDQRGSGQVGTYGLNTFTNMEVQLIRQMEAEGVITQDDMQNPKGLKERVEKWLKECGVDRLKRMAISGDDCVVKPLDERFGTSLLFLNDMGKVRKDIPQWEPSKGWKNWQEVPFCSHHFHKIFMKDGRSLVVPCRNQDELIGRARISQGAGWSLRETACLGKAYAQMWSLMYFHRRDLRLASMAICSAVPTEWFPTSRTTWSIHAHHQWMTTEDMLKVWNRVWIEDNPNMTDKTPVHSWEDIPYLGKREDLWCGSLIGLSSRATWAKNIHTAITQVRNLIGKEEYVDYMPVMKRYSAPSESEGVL
# Procedure: Site-directed alanine mutations of DENV4 FL NS5 cDNA were performed using pET28-D4-MY01-22713 NS5FL [23] as a template, according to the manufacturer’s protocol (Stratagene, USA). Protein expressions of DENV1-4 FL NS5 and their stability analyses by thermo-fluorescence were performed as described previously. DENV de novo initiation and elongation FAPA assays were earlier described. […]
# 6 Fi g .5. Ef fects of N -pocket compounds on DENV pol ymerase thermo-stability. Melting
# 7 temperatur e (Tm) w as ass essed b y thermo-d enatur ation in presence of the S YPRO Oran ge
# 8 dye as described in Materials and Methods. (A-F) Representative meltin g curves of DEN V4
# 10 inhibitors or 5 % DMSO control. […]
# 16 controls treated with DMSO.
# HCV replicon = HCV replicon firefly luciferase assay; assay type: cell-based, hepatitis C virus (HCV) genotype 1b; details: Hepatitis C virus; HuH-7; 48 hr; tested up to 25 μM
# Procedure: A549, BHK-21 and Huh7 cells bearing stable DENV2 sub-genomic replicon or transiently electroporated DENV2-NGC replicon or infectious virus cDNAs were seeded into 384-well microplate (3,000 cells per well). After over-night incubation at 37°C with 5% CO2, the cells were treated with 2-fold serially diluted compounds, starting from 20 or 50 μM. At 48 hr of post-incubation, renilla luciferase activities were measured with the ViviRen live-cell substrate (Promega, USA) according to the manufacturer’s protocol. CellTiter-Glo reagent (Promega, USA) was then added to determine cytotoxic effects of compounds. For the HCV replicon assay, Huh-7.5 cells harboring the HCV replicon were seeded into a 96-well microplate (20,000 cells per well). At 48 hr after compound treatment, cells were assayed for firefly luciferase activity by using a Bright-Glo luciferase assay (Promega, USA). NITD-008, a nucleoside inhibitor of DENV and HCV was added as a control.
# 1 containing 2 % FBS, 1mM L-glutamine and 1 % penicillin-streptom ycin and incubated over-
# At 24 h post-seeding, cells were inf ected with DENV1-4 at […]
# 8 DENV envelope protein ) and DRAQ5 (for nucl ear DNA) . Quantifications of DENV
# 9 envelope protein were determined using the Opera high content imaging s ystem and anal ysis […]
# 17 µM concentrations. At 48 hr of post-incubation, r enilla luciferas e activities were measured […]
# DENV4, strain MY01-22713 = details: A549; 48 hr; read-out: DENV4 HCI, EC50 (converted); cited from earlier work
# DENV2-NGC replicon E802D = assay type: cell-based; details: electroporated BHK-21; 2 days
# [3] = system: Human rhinovirus (7 serotypes); assay: Human rhinovirus cytopathic inhibition in HeLa cells; assay type: cell-based; details: Rhinovirus A, 120 h, cytopathic inhibition over 5 days
# [4] = system: Compound 29-resistant DENV2-NGC EGFP-replicon cells; assay: Compound-resistant DENV2-NGC EGFP-replicon cells; assay type: cell-based; details: Dengue virus, DENV2, 48 h, read-out: EC50, Compound 29-resistant DENV2-NGC EGFP-replicon cells
# DENV2-NGC virus E802D = assay type: cell-based; details: A549, MOI = 0.2; 48 hr; plaque assay
# DENV2 FL NS5 L511V = target: T1, DENV2 FL NS5 L511V (Dengue virus type 2, UniProt P14340, L3003V); assay type: binding; details: 50 µM compound; for Protein melting temperature, Tm, DENV2 FL NS5 L511V: DMSO 35.5
# T1 construct: Recombinant DENV2 (A, C) and DENV4 (B, D) FL NS5 proteins bearing single or double amino acid changes; made in house
# [5] = system: clinical DENV2 isolate MY97-10340; details: A549, 48 hr, read-out: DENV2 HCI, EC50 (converted); cited from earlier work
# DENV4 FL NS5 L512V = target: T2, DENV4 FL NS5 L512V (Dengue virus type 4, UniProt P09866, L2999V); assay type: binding; details: 50 µM compound; for Protein melting temperature, Tm, DENV4 FL NS5 L512V: DMSO 36.5
# T2 construct: Recombinant DENV2 (A, C) and DENV4 (B, D) FL NS5 proteins bearing single or double amino acid changes; made in house
# T2 sequence (P09866 2488-3387 L2999V): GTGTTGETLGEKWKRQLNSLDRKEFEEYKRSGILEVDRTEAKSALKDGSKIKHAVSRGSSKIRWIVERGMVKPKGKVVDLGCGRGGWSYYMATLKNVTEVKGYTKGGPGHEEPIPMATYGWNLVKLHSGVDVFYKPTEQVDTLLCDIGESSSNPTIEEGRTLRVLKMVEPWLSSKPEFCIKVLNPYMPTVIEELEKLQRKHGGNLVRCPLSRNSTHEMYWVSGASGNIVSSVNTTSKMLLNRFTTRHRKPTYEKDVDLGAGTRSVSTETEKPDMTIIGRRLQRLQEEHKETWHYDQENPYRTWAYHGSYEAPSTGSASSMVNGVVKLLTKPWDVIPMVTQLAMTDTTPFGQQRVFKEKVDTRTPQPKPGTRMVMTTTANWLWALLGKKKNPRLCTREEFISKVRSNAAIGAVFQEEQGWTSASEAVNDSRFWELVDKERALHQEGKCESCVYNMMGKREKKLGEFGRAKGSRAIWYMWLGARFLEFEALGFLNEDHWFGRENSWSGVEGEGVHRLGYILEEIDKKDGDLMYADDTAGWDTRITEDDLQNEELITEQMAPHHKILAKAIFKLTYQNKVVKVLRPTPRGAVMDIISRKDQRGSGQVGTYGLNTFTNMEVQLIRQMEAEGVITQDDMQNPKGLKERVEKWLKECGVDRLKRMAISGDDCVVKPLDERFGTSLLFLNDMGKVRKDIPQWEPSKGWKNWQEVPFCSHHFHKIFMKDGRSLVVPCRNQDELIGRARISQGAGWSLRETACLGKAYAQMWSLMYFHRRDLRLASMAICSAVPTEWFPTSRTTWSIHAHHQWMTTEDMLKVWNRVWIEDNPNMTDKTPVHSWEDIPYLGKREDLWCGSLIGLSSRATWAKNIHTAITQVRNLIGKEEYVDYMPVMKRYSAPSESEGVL
SMILES,EC50 [1] [µM],"Protein melting temperature Tm with compound, RdRp domain [2] [°C]",EC50 (HCV replicon) [µM],"EC50 (DENV4, strain MY01-22713) [µM]",EC50 (DENV2-NGC replicon E802D) [µM],EC50 [3] [µM],EC50 [4] [µM],EC50 (DENV2-NGC virus E802D) [µM],"Tm change compared to DMSO control, DENV2 FL NS5 L511V (DENV2 FL NS5 L511V) [°C]","Protein melting temperature, Tm, DENV2 FL NS5 L511V (DENV2 FL NS5 L511V) [°C]",EC50 [5] [µM],"Tm change compared to DMSO control, DENV4 FL NS5 L512V (DENV4 FL NS5 L512V) [°C]","Protein melting temperature, Tm, DENV4 FL NS5 L512V (DENV4 FL NS5 L512V) [°C]"
COc1cccc(S(=O)(=O)NC(=O)c2cc(-c3ccc(C#CCO)s3)c(OC)cc2OC)c1 [Compound 27],2.46,58,> 25,1.8 ± 0.2,12.8,> 50,41.7,1.42,0,35.5,2.3,0,36.5
COc1cc(OC)c(-c2ccc(C#CCO)s2)cc1C(=O)NS(=O)(=O)c1cccc2cccnc12 [Compound 29],3.55,64,> 25,10.2,21.4,> 50,34,5.8,1.0,36.5,14.1,1.5,38
